The values that follow come from patent US20200392462A1, “METHODS OF FORMING CARDIOMYOCYES” (THE REGENTS OF THE UNIVERSITY OF COLORADO, A BODY CORPORATE, priority 2018, published 2020).

The series in a line: Inhibitor release study by HPLC. The class given is physicochemical. How it is done:
Inhibitor loading efficiency and release studies: All supernatants after initial loading of inhibitors were stored at −20° C. Supernatants were analyzed by reverse phase high performance liquid chromatography (HPLC). Inhibitor release studies were done sampling particle suspension inhibitor release up to 6 days. Briefly, drug release solution was prepared using 1 mL of 1×PBS, and 1 mL of 1% bovine serum albumin. The lyophilized pSi were suspended at a concentration of 3 mg/mL of drug release solution and incubated at 37° C. with constant stirring. At 1, 3, 5, 12 and every 24 hours thereafter, suspensions were centrifuged and 1 ml drug release solution was taken and replaced with fresh drug release solution. Agilent Zorbax Eclipse Plus C18 (100×4.6 mm, 3.5 um pore particle size) column was used for analysis. Samples flowed through the column at 1.0 ml/min and with a mobile phase consisting of acetonitrile in 0.1% trifluoroacedic acid: H2O in 0.1% trifluoroacedic acid (V/V). Samples were analyzed at 281 nm.

For `Cc1c[nH]c(-c2cnc(NCCNc3ccc(C#N)cn3)nc2-c2ccc(Cl)cc2Cl)n1` [CHIR99021], the cumulative release is, setting by setting: (from pSi, at 144 hours) roughly 100%; (from pSi, within the first 24 hours, 37° C., PBS/BSA) 81.1±5.3%.

For the compound `Cc1ccc2nc(NC(=O)CSc3nc4c(c(=O)n3-c3ccccc3)SCC4)sc2c1` [IWP2], the cumulative release reads like this: (from pSi coated with 5 wt % PLGA 50:50, after 144 hours) 56.4±7.2%; (from pSi coated with 5 wt % PLGA 50:50, end of 72 hours) 40.2±9.1%; (from pSi coated with 5 wt % PLGA 50:50, within the first 48 hours) 27.8±7.2%.
